ChEMBL document CHEMBL1255366, “First report of cfr-mediated resistance to linezolid in human staphylococcal clinical isolates recovered in the United States” (2008)
Converted amounts (≈) assume the structure as drawn.

Experiments:
Type in all cases: functional
Staphylococcus aureus [1] = experiment: Antimicrobial activity against linezolid-resistant Staphylococcus aureus isolate 004-737X expressing cfr and ermA gene isolated from paraplegic patient by broth microdilution method
[2] = test system: Staphylococcus epidermidis; experiment: Antimicrobial activity against Staphylococcus epidermidis isolate 426-3147L expressing cfr gene by broth microdilution CLSI method
[3] = test system: Staphylococcus epidermidis; experiment: Antimicrobial activity against Staphylococcus epidermidis isolate 426-3147L expressing cfr gene by disk diffusion method
[4] = test system: Staphylococcus epidermidis; experiment: Antimicrobial activity against Staphylococcus epidermidis isolate 426-3147L expressing cfr gene by Etest method
Staphylococcus aureus [5] = experiment: Antimicrobial activity against linezolid-resistant Staphylococcus aureus isolate 004-737X expressing cfr and ermA gene isolated from paraplegic patient by Etest method
Staphylococcus aureus [6] = experiment: Antimicrobial activity against linezolid-resistant Staphylococcus aureus isolate 004-737X expressing cfr and ermA gene isolated from paraplegic patient by disk diffusion method

| SMILES | MIC (Staphylococcus aureus [1]) [µg/mL] | MIC [2] [µg/mL] | diameter of the inhibition zone (DIZ) [3] [mm] | MIC [4] [µg/mL] | MIC (Staphylococcus aureus [5]) [µg/mL] | diameter of the inhibition zone (DIZ) (Staphylococcus aureus [6]) [mm] |
| --- | --- | --- | --- | --- | --- | --- |
| O=C(N[C@H](CO)[C@H](O)c1ccc([N+](=O)[O-])cc1)C(Cl)Cl [CHLORAMPHENICOL] | > 256 | > 256 | – | – | – | – |
| O=C(O)c1cn(C2CC2)c2cc(N3CCNCC3)c(F)cc2c1=O [CIPROFLOXACIN] | > 32 | – | – | – | – | – |
| CCC[C@@H]1C[C@@H](C(=O)N[C@@H]([C@H]2O[C@H](SC)[C@H](O)[C@@H](O)[C@H]2O)[C@H](C)Cl)N(C)C1 [CLINDAMYCIN] | > 256 | > 256 | – | – | – | – |
| CC[C@H]1OC(=O)[C@H](C)[C@@H](O[C@H]2C[C@@](C)(OC)[C@@H](O)[C@H](C)O2)[C@H](C)[C@@H](O[C@@H]2O[C@H](C)C[C@H](N(C)C)[C@H]2O)[C@](C)(O)C[C@@H](C)C(=O)[C@H](C)[C@@H](O)[C@]1(C)O [ERYTHROMYCIN] | > 256 | > 4 | – | – | – | – |
| CC(=O)NC[C@H]1CN(c2ccc(N3CCOCC3)c(F)c2)C(=O)O1 [LINEZOLID] | 8 (≈ 23.7 µM) | > 256 | 6 | > 256 | 8 (≈ 23.7 µM) | 19 |
| C/C(=C\C(=O)OCCCCCCCCC(=O)O)C[C@@H]1OC[C@H](C[C@@H]2O[C@H]2[C@@H](C)[C@H](C)O)[C@@H](O)[C@H]1O [MUPIROCIN] | 0.25 (≈ 0.499 µM) | 64 (≈ 128 µM) | – | – | – | – |
| Cc1onc(-c2ccccc2)c1C(=O)N[C@@H]1C(=O)N2[C@@H]1SC(C)(C)[C@@H]2C(=O)O [OXACILLIN] | > 2 | > 2 | – | – | – | – |
| C=C[C@]1(C)C[C@@H](OC(=O)CS[C@@H]2C[C@H]3CC[C@@H](C2)N3C)[C@]2(C)[C@H](C)CC[C@]3(CCC(=O)[C@H]32)[C@@H](C)[C@@H]1O [RETAPAMULIN] | 32 (≈ 61.8 µM) | > 32 | – | – | – | – |
| CN(C)[C@@H]1C(O)=C(C(N)=O)C(=O)[C@@]2(O)C(O)=C3C(=O)c4c(O)cccc4[C@@](C)(O)[C@H]3C[C@@H]12 [TETRACYCLINE] | > 8 | > 8 | – | – | – | – |
